We go through 6 compounds from publication PMC8469748, “A Method for Rapid Screening, Expression, and Purification of Antimicrobial Peptides” (Microorganisms, 2021).

In experiment [1] the test system is E. coli DH5α. Kind of experiment: Inhibition zone test (agarose plate, Oxford cup). Format: cell-based. The method, then: To measure AMP activity, the agarose plate method was employed. Microorganisms for inhibition testing were activated, 3–5 single colonies were picked and placed in liquid LB medium, cultured on a shaker at 37 °C for 6 h. Solid LB medium was melted by heating, 500 μL of liquid bacterial culture was added for every 100 mL of medium after cooling slightly, and the mixture was poured into a bacterial plate to solidify. Oxford cups were inserted into the solidified mixed bacterial plate, while being careful not to penetrate the medium completely, so as not to affect the penetration of the test liquid on the plate. Attention was paid to the spacing between the Oxford cups. Corresponding Oxford cups were marked and positive/negative controls (100 μL each) were added. Plates were incubated at 37 °C overnight to observe the antibacterial effects.
The E. coli DH5α mixed bacteria plate was prepared as described above. Two negative controls (HRV 3C Cleavage Buffer and 1 M NaCl) and a positive control (2 mg/mL ampicillin) were included.

Experiment [2] concerns E. coli. Kind of experiment: MIC test (96-well plate, OD600). It is filed as cell-based. The settings on record: for inhibition activity against testing microorganisms (MIC test): AMP expressed and purified in E. coli, up to 128 mg/L; for minimum concentration that inhibited an increase in the OD600 of the bacterial solution (MIC): 96-well plate, final 128 to 0.25 mg/L. The method, then: When measuring the minimum inhibitory concentration (MIC) of the expressed and purified AMPs, we performed the test according to the Clinical and Laboratory Standards Association. Specifically, microorganisms to be tested were activated, and five colonies were picked and separately cultured into liquid medium on a shaker (220 rpm) at 37 °C until the absorbance at 600 nm (OD600) reached 0.13–0.17; thus, corresponding to a biomass concentration of ~1 × 10^8 colony-forming units (CFU)/mL. Samples for testing were diluted to 4 mM, and two-fold serial dilutions were performed in a 96-well plate, with the concentration ranging from 100 to 0.195 μM. Each dilution (50 μL) was performed in duplicate. Next, 50 μL of microbial culture containing ~1 × 10^6 CFU/mL was added to each well. After incubating overnight at 37 °C, OD600 was measured using a microplate spectrophotometer.
Figure 8 The schematic diagram of a 96-well plate measuring MIC (data taken from three parallel experiments). Horizontal direction is AMP 1, 2, 6, 13, 16 test rows; Vertical direction 1–10 is the final concentration of 128 mg/L to 0.25 mg/L of these AMPs, respectively; 11 is the negative control; 12 is a positive control, the 20 mg/L ampicillin.
Figure 13B is a schematic diagram of the 96-well plate MIC experiment (data are from three parallel replicates). The horizontal direction is AMP13 from P. pastoris, the vertical direction is the final peptide concentration (128 mg/L to 0.25 mg/L), 11 is the negative control and 12 is the positive control (20 mg/L ampicillin).

Where [3] appears, read: AMP expressed in E. coli, two-fold dilutions, overnight 37 °C, three parallel experiments.
The mark [4] stands for this setting: AMP expressed in E. coli and purified, mixed bacteria LB agar plate, Oxford cup, 100 μL liquid per cup, 37 °C overnight.

Entries after “also recorded” stand apart in the source; their conditions may differ.

Take `CC1(C)S[C@@H]2[C@H](NC(=O)[C@H](N)c3ccccc3)C(=O)N2[C@H]1C(=O)O` [ampicillin, reference compound]: the Inhibition zone entry in experiment [1] (positive control, 2 mg/mL ampicillin, E. coli DH5α mixed bacteria plate, test of P. pastoris AMP13) is on record as “there was an inhibition zone”; in experiment [1] (positive control, ampicillin 200 mg/L, 100 μL per Oxford cup, plates of E. coli-derived AMPs), “there was an inhibition zone”.
Regarding “ITPATPFTPAIITEITAAVIA [AMP1, antimicrobial peptide selected from the AMP library website, expressed as CL7 fusion in E. coli and released by HRV 3C protease]”, the “inhibition activity against testing microorganisms (MIC test)” value in experiment [2] was “no inhibition activity; also recorded: did not exhibit detectable antibacterial activity”. In addition, the “minimum concentration that inhibited an increase in the OD600 of the bacterial solution (MIC)” value in experiment [2] (setting [3]) came to 128 mg/L. Also, the Inhibition zone result in experiment [1] (setting [4]) is on record as “no inhibition zones”.
The corresponding values for “ILPWKWPWWPWRR [AMP2, antimicrobial peptide selected from the AMP library website, expressed as CL7 fusion in E. coli and released by HRV 3C protease]” are “no inhibition activity; also recorded: did not exhibit detectable antibacterial activity”, > 128 mg/L and “no inhibition zones”.
As for “DSHAKRHHGYKRKFHEKHHSHRGY [AMP16, antimicrobial peptide selected from the AMP library website, expressed as CL7 fusion in E. coli and released by HRV 3C protease]”, the “minimum concentration that inhibited an increase in the OD600 of the bacterial solution (MIC)” value in experiment [2] (setting [3]) was determined as 64 mg/L. The Inhibition zone result in experiment [1] (setting [4]) is recorded as “there was an inhibition zone”.
As for “VFQFLGKIIHHVGNFVHGFSHVF [AMP6, antimicrobial peptide selected from the AMP library website, expressed as CL7 fusion in E. coli and released by HRV 3C protease]”, the “inhibition activity against testing microorganisms (MIC test)” value in experiment [2] is recorded as “no inhibition activity; also recorded: did not exhibit detectable antibacterial activity”. Moreover, the “minimum concentration that inhibited an increase in the OD600 of the bacterial solution (MIC)” value in experiment [2] (setting [3]) is > 128 mg/L. In experiment [1] (setting [4]), the Inhibition zone entry was “no inhibition zones”.
In experiment [2] (AMP13 from P. pastoris, equated from 16 mg/L), “GFCRCLCRRGVCRCICTR [AMP13, antimicrobial peptide selected from the AMP library website, expressed as CL7 fusion in E. coli and in P. pastoris, released by HRV 3C protease]” came in with a minimum inhibitory concentration (MIC) of 8.1 µM. Further, the “minimum concentration that inhibited an increase in the OD600 of the bacterial solution (MIC)” value in experiment [2] (AMP13 produced by P. pastoris (PZEAP13), three parallel replicates) is 16 mg/L; in experiment [2] (setting [3]), 32 mg/L. For the same compound, the “effective MIC” value in experiment [2] (AMP13 purified from P. pastoris, discussion) was 16 mg/L. The Inhibition zone result is given as “showed inhibition activity; also recorded: clear circle of inhibition” in experiment [1] (AMP13 produced by P. pastoris (PZEAP13), E. coli DH5α mixed bacteria plate, Oxford cup, 100 μL) and “there was an inhibition zone” in experiment [1] (setting [4]).
